In US5376679A, “Bicyclic or tricyclic biocidal compounds” (Shell Internationale Research Maatschappij B.V., priority 1988, dated 1994):
Converted amounts (≈) assume the structure as drawn.

How the values were obtained:
Fusarium culmorum = assay: Activity against seedling wheat blight, soil drench (Fs); assay type: in vivo; parameters: scale not given here; settings: 10 kg/ha, 21 days, activity grade 1 or 2, not defined
Procedure, shortened: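 Wheat seeds (var Waggoner) soaked 6 h at 22° C in 7×10^5 spores/ml, sown in sand; 1 day later soil drench at 10 kg/ha (0.36 g/l in 12% v/v acetone/water). Glasshouse at 25° C; at 21 days, stem-base and upper-root lesions scored visually against control seedlings.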

Chaetomium globosum = assay: Minimum inhibitory concentration, Chaetomium globosum (Chg); assay type: cell-based
Experimental: (§1) Inocula of the fungi Aspergillus niger, Cladosporium resinae and Chaetomium globosum were prepared containing 5×10^5 conidia/ml in a potato dextrose broth. The potato dextrose broth was prepared by suspending 4 g potato extract and 20 g dextrose in 1 liter of distilled water, warming to achieve solution, separating into aliquots and sterilising by autoclaving at 121° C. for 15 minutes.
(§2) Test procedures were as follows:
(§3) (ii) Dilution Series for Other Test Bacteria, Yeast and Filamentous Fungi
(§4) Dilution series from the stock solution of each compound were prepared in sterile distilled water. These contained 50, 100, 500 and 1000 ppm compound. To duplicate wells of a compartmentalised square petri dish 0.3 ml of each test compound concentration was added together with 2.7 ml of one of the microbial inocula described above. This gave final concentrations of the test compound of 5, 10, 50 and 100 ppm.
(§5) After incubation, in the dark, at 30° C. the wells were examined for the presence or absence of growth. Bacterial and yeast cultures were examined after 24 hours and 72 hours incubation and the fungi cultures after 3, 7 and 10 days.
(§6) By means of the above tests minimum inhibitory concentrations were determined for the various test compounds.

Desulfovibrio sp. = assay: Minimum inhibitory concentration, sulphate-reducing bacteria (Dsp); assay type: cell-based; settings: 30° C., 2, 5 and 10 days
Experimental: The sulphate reducing bacteria Desulfovibrio sp. were cultured in a modified Postgate's Medium B for 48 hours at 30° C. and used directly as an inoculum. The modified Postgate's Medium B consisted of 0.5 g dipotassium hydrogen phosphate, 1 g ammonium chloride, 1 g sodium sulphate, 5 g sodium lactate, 1 g yeast extract, 0.1 ml thioglycolic acid, 0.1 ml ascorbic acid, 0.5 g ferrous sulphate heptahydrate, 750 ml aged seawater and 250 ml distilled water, pH adjusted to 7.8, divided into aliquots and sterilised by autoclaving at 121° C. for 15 minutes. […] Test procedures were as follows: (i) Suphate-reducing Bacteria Test Dilution Series Duplicate aliquots (9.9 ml) of dilution series from the stock solutions of each compound were prepared in a modified Postgate's Medium B described above. These contained 100 ppm compound. These were then inoculated with 0.1 ml of inoculum. After incubation at 30° C., the presence or absence of growth--as indicated by a blackening of the medium due to ferrous sulphide production--was recorded at 2, 5 and 10 days. […] By means of the above tests minimum inhibitory concentrations were determined for the various test compounds.

Escherichia coli = assay: Minimum inhibitory concentration, Escherichia coli (Ec); assay type: cell-based, Escherichia coli (NCIB 9517); settings: 30° C., 24 and 72 hours
Experimental: (§7) In respect of S. aureus, B. subtilis and E. coli, the microorganisms were cultured in 50 ml aliquots of a tryptone soya broth in 250 ml conical flasks at 30° C. on a rotary shaker at 200 rpm for 24 hours. Tryptone soya broth was prepared by adding 17 g pancreatic digest of casein, 3 g […] digest of soyabean meal, 5 g of sodium chloride, 2.5 g of dipotassium hydrogen phosphate and 2.5 g of dextrose to 1 liter of distilled water, mixing and sterilising by autoclaving at 121° C. for 15 minutes. 1 ml aliquots of the resulting cultures were mixed with 99 ml of fresh tryptone soya broth and used as inocula for tests. […] Test procedures were as follows: (ii) Dilution Series for Other Test Bacteria, Yeast and Filamentous Fungi Dilution series from the stock solution of each compound were prepared in sterile distilled water. These contained 50, 100, 500 and 1000 ppm compound. To duplicate wells of a compartmentalised square petri dish 0.3 ml of each test compound concentration was added together with 2.7 ml of one of the microbial inocula described above. […] After incubation, in the dark, at 30° C. the wells were examined for the presence or absence of growth. Bacterial and yeast cultures were examined after 24 hours and 72 hours incubation and the fungi cultures after 3, 7 and 10 days. By means of the above tests minimum inhibitory concentrations were determined for the various test compounds.

[1] = system: Pseudocercosporella herpotrichoides; assay: In vitro activity against wheat eyespot (Ph); assay type: cell-based; parameters: Ph: activity against wheat eyespot: scale not given here; settings: in vitro, 100 ppm in agar, 11 days; activity grade 1 or 2, not defined
Procedure, shortened: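 Compound was dispersed from acetone into half-strength potato dextrose agar at 100 ppm final. Two 5 mm mycelial plugs were placed on each plate, which was incubated 11 days at 20–22 °C in darkness. Diametric growth minus plug width was compared with acetone-only agar.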

Aspergillus niger = assay: Minimum inhibitory concentration, Aspergillus niger (An); assay type: cell-based, Aspergillus niger (CMI 17454); settings: 30° C., 3, 7 and 10 days
Experimental: as §1, §2, §3, §4, §5, §6

Bacillus subtilis = assay: Minimum inhibitory concentration, Bacillus subtilis (Bs); assay type: cell-based; settings: 30° C., 24 and 72 hours
Experimental: as §7

Staphylococcus aureus = assay: Minimum inhibitory concentration, Staphylococcus aureus (Sa); assay type: cell-based, Staphylococcus aureus (NCIB 6571); settings: 30° C., 24 and 72 hours
Experimental: as §7

Saccharomyces cerevisiae = assay: Minimum inhibitory concentration, yeast (Sc); assay type: cell-based, Saccharomyces cerevisiae (ATCC 9763); settings: 30° C., 24 and 72 hours
Experimental: Inocula of S. cerevisiae were prepared as for S. aureus, B. subtilis and E. coli, but using yeast malt broth in place of the typtone soya broth. The yeast malt broth was prepared by suspending 3 g yeast extract, 3 g malt extract, 5 g peptone and 10 g dextrose in 1 liter of distilled water, warming to achieve solution and sterilising by autoclaving at 121° C. for 15 minutes.
as §2, §3, §4, §5, §6

Cladosporium resinae = assay: Minimum inhibitory concentration, Cladosporium resinae (Cr); assay type: cell-based; settings: Amorphotheca resinae, 30° C., 3, 7 and 10 days
Experimental: as §1, §2, §3, §4, §5, §6

SMILES | Fs: activity against seedling wheat blight (Fusarium culmorum) | MIC (Chaetomium globosum; 30° C., 3, 7 and 10 days) | MIC (Desulfovibrio sp.) | MIC (Escherichia coli) | Ph: activity against wheat eyespot [1] | MIC (Aspergillus niger) | MIC (Bacillus subtilis) | MIC (Staphylococcus aureus) | MIC (Saccharomyces cerevisiae) | MIC (Cladosporium resinae) | MIC (Chaetomium globosum; *only tested at 100 ppm)
N#CN=[N+]([O-])c1ccc2oc(=O)ccc2c1 [Example 1] | 2 | 10 µg/mL (≈ 46.5 µM) | 25 µg/mL (≈ 116 µM) | > 100 µg/mL | 2 | 25 µg/mL (≈ 116 µM) | 50 µg/mL (≈ 232 µM) | > 100 µg/mL | 5 to 25 µg/mL (≈ 23.2 to 116 µM) | 25 to 50 µg/mL (≈ 116 to 232 µM) | –
CC1(C)Cc2cc(Cl)cc([N+]([O-])=NC#N)c2O1 [Example 4] | 2 | > 100 µg/mL | > 100 µg/mL | > 100 µg/mL | 2 | 100 µg/mL (≈ 397 µM) | 50 µg/mL (≈ 199 µM) | 100 µg/mL (≈ 397 µM) | > 100 µg/mL | 25 µg/mL (≈ 99.3 µM) | –
CC1Oc2c(cc(Cl)cc2[N+]([O-])=NC#N)C1C (stereo not drawn) [Example 5] | 2 | 5 to 25 µg/mL (≈ 19.9 to 99.3 µM) | > 100 µg/mL | > 100 µg/mL | 2 | 10 µg/mL (≈ 39.7 µM) | 100 µg/mL (≈ 397 µM) | > 100 µg/mL | 50 µg/mL (≈ 199 µM) | 25 µg/mL (≈ 99.3 µM) | –
CC1Cc2cc(Cl)cc([N+]([O-])=NC#N)c2O1 (stereo not drawn) [Example 6] | 2 | 25 µg/mL (≈ 105 µM) | 100 µg/mL (≈ 421 µM) | > 100 µg/mL | 2 | 25 µg/mL (≈ 105 µM) | 100 µg/mL (≈ 421 µM) | 100 µg/mL (≈ 421 µM) | 25 µg/mL (≈ 105 µM) | 25 µg/mL (≈ 105 µM) | –
CC1Oc2c(cccc2[N+]([O-])=NC#N)C1C (stereo not drawn) [Example 9] | 2 | 50 µg/mL (≈ 230 µM) | 100 µg/mL (≈ 460 µM) | > 100 µg/mL | 2 | 25 µg/mL (≈ 115 µM) | 50 µg/mL (≈ 230 µM) | > 100 µg/mL | 50 µg/mL (≈ 230 µM) | 25 µg/mL (≈ 115 µM) | –
N#CN=[N+]([O-])c1cc(Cl)cc2c1OC(CCl)C2 (stereo not drawn) [Example 10] | 2 | – | 100 µg/mL (≈ 368 µM) | > 100 µg/mL | 2 | 25 µg/mL (≈ 91.9 µM) | > 100 µg/mL | > 100 µg/mL | > 100 µg/mL | 25 µg/mL (≈ 91.9 µM) | < 100 µg/mL
